Blank lines part the entries; values can stand above or below the molecule they belong to. Calls of active or inactive are those of the source.
What was measured:
[1] = inhibitors of cytokine-induced nitrite release, dose response, cell-based, Griess absorbance, INS-1E, dry powder, set 3 (AID 488870); format: functional; conditions: Rattus norvegicus
INS1 [2] = assay: inhibitors of cytokine-induced nitrite release, dose response, cell-based, Griess absorbance, INS-1E, dry powder, set 2 (AID 488868); format: functional; conditions: Rattus norvegicus
INS1 [3] = assay: protection of INS-1E cells from cytokine death, dose response, ATP luminescence, dry powder (AID 488844); format: functional, cell-based; conditions: Rattus norvegicus
Caspase-3 = target: T1, Caspase-3 (Homo sapiens, UniProt P42574); assay: caspase-3 inhibitors as off-family protease, SAR follow-up, selectivity assay for SENP protease inhibitor project, biochemical, luminescence, set 2 (AID 588599); format: functional
T1 sequence (P42574 whole entry): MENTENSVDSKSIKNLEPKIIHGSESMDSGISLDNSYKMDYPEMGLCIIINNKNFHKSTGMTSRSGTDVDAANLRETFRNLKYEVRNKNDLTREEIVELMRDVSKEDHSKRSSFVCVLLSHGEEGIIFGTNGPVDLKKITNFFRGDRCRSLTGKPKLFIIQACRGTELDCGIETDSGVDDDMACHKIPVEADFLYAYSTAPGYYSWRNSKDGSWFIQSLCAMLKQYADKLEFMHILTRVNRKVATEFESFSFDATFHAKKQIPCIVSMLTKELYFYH

[4] = target: T2, Sentrin-specific protease 6 (Homo sapiens, UniProt Q9GZR1); assay: SENP6 protease inhibitors, SAR follow-up, biochemical, luminescence, set 2 (AID 588598); format: functional
T2 sequence (Q9GZR1 whole entry): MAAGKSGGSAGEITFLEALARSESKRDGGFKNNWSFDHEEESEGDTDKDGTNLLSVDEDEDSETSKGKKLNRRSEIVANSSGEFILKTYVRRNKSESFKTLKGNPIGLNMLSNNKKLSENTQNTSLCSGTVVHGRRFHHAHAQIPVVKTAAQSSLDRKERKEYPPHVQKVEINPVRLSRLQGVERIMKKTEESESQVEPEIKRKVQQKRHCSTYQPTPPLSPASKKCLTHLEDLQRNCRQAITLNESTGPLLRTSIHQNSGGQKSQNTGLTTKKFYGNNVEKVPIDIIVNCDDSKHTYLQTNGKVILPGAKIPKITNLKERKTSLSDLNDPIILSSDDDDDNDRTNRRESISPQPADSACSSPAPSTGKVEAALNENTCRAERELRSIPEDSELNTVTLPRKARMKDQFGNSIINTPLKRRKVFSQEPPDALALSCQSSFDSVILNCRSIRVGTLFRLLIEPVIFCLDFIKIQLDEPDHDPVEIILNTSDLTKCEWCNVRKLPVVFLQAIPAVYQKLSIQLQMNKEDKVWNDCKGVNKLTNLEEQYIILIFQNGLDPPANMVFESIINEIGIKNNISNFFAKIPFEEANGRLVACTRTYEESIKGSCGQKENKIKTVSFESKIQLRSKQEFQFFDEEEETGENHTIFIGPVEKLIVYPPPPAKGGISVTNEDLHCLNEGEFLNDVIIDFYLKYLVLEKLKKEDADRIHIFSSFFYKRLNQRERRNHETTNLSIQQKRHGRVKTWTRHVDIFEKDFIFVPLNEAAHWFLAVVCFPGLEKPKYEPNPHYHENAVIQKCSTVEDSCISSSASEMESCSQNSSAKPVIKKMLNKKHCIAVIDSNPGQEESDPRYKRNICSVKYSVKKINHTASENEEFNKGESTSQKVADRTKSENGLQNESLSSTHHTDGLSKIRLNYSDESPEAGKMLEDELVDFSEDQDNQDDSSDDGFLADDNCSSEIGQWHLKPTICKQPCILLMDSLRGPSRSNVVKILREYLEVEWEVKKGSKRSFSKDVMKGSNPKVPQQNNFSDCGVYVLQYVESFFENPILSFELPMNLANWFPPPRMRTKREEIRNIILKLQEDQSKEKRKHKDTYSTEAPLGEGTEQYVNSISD

[5] = target: T3, Sentrin-specific protease 8 (Homo sapiens, UniProt Q96LD8); assay: SENP8 protease inhibitors, SAR follow-up, biochemical, luminescence, set 2 (AID 588601); format: functional
T3 sequence (Q96LD8 whole entry): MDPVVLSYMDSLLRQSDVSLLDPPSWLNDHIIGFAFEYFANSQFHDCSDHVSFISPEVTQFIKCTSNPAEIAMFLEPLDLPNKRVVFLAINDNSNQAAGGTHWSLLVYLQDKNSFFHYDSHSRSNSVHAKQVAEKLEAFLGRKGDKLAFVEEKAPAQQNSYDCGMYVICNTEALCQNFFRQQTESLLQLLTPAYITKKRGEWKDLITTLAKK

[6] = target: T4, Sentrin-specific protease 7 (Homo sapiens, UniProt Q9BQF6); assay: SENP7 protease inhibitors, SAR follow-up, biochemical, luminescence, set 2 (AID 588600); format: functional
T4 sequence (Q9BQF6 whole entry): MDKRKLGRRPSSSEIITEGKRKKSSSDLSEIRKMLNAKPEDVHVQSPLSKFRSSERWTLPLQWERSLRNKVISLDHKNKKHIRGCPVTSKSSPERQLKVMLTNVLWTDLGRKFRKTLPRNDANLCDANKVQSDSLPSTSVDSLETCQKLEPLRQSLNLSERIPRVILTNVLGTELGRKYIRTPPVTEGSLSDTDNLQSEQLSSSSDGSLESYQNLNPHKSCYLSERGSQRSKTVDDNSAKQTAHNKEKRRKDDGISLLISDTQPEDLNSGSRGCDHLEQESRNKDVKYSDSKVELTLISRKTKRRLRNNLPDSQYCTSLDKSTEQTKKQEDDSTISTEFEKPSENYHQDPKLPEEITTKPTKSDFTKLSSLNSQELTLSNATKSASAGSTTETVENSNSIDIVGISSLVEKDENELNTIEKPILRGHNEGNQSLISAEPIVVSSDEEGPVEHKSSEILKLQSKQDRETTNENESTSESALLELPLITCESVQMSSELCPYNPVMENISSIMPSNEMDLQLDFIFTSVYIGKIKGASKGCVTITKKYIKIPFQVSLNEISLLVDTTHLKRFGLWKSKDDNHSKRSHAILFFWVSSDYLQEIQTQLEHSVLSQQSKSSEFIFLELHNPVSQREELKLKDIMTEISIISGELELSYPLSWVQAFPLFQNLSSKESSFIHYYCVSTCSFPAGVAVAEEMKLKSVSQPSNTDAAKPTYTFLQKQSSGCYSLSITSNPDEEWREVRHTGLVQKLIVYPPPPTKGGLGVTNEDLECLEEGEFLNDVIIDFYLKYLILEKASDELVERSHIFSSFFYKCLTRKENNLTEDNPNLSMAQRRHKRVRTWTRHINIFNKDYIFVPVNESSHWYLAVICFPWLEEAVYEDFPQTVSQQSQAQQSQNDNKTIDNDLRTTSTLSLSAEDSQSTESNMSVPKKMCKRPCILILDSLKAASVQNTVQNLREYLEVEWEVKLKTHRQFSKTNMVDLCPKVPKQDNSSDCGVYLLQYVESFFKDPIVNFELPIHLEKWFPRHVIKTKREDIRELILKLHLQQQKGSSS

[7] = target: DNA dC->dU-editing enzyme APOBEC-3G (Homo sapiens, UniProt Q9HC16); assay: APOBEC3G deaminase inhibitors, SAR follow-up, biochemical, fluorescence, single-stranded DNA substrate (AID 602136); format: functional; conditions: read-out: IC50_Mean
[8] = target: DNA dC->dU-editing enzyme APOBEC-3A (Homo sapiens, UniProt P31941); assay: SAR analysis of small molecule inhibitors of APOBEC3A DNA Deaminase via a fluorescence-based single-stranded DNA deaminase assay.; format: functional; conditions: read-out: IC50_Mean
[9] = target: Sphingosine 1-phosphate receptor 2 (Homo sapiens, UniProt O95136); assay: S1P2 receptor agonists, human, late-stage follow-up, counter-screen for S1P4 agonist project, cell-based, fluorescence, set 2 (AID 504873); format: functional
[10] = target: Sphingosine 1-phosphate receptor 3 (Homo sapiens, UniProt Q99500); assay: Late-stage fluorescence-based dose-response cell-based counterscreen assay to identify agonists of the Sphingosine 1-Phosphate Receptor 4 (S1P4): Sphingosine 1-Phosphate Receptor 3 (S1P3) agonist assay Set 2.; format: functional
[11] = target: Sphingosine 1-phosphate receptor 5 (Homo sapiens, UniProt Q9H228); assay: S1P5 receptor agonists, human, late-stage follow-up, counter-screen for S1P4 agonist project, cell-based, fluorescence, set 2 (AID 504867); format: functional
[12] = target: Sphingosine 1-phosphate receptor 1 (Homo sapiens, UniProt P21453); assay: Late-stage fluorescence-based dose-response cell-based counterscreen assay to identify agonists of the Sphingosine 1-Phosphate Receptor 4 (S1P4): Sphingosine 1-Phosphate Receptor 1 (S1P1) agonist assay Set 2.; format: functional
Sphingosine 1-phosphate receptor 1, sequence (P21453 whole entry): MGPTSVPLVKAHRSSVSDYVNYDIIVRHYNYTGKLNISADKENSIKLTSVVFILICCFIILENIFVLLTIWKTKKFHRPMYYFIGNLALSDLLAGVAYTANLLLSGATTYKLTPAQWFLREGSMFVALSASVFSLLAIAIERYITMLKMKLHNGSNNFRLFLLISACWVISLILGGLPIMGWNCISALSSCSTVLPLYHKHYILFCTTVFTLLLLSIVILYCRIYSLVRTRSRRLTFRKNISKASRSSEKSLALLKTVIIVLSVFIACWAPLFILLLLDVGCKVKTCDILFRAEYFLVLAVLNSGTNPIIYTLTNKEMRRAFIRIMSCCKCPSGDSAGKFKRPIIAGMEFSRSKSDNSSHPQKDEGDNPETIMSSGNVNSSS

DNA dC->dU-editing enzyme APOBEC-3A, sequence (P31941 whole entry): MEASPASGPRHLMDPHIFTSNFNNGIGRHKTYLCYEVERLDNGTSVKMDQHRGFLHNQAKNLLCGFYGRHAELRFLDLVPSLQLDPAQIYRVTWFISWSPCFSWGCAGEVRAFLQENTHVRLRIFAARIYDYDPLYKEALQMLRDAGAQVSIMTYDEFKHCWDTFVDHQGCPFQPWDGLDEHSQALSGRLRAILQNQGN
DNA dC->dU-editing enzyme APOBEC-3G, sequence (Q9HC16 whole entry): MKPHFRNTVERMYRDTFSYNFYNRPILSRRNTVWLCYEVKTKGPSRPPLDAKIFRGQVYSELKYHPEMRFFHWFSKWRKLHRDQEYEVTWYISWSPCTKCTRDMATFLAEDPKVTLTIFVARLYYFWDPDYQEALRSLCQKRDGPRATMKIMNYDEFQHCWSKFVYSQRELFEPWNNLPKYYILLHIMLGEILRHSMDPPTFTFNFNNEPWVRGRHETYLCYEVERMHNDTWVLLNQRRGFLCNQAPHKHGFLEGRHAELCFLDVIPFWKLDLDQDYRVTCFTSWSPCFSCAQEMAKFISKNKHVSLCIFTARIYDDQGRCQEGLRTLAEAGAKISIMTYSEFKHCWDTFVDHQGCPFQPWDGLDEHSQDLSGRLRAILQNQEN
Sphingosine 1-phosphate receptor 5, sequence (Q9H228 whole entry): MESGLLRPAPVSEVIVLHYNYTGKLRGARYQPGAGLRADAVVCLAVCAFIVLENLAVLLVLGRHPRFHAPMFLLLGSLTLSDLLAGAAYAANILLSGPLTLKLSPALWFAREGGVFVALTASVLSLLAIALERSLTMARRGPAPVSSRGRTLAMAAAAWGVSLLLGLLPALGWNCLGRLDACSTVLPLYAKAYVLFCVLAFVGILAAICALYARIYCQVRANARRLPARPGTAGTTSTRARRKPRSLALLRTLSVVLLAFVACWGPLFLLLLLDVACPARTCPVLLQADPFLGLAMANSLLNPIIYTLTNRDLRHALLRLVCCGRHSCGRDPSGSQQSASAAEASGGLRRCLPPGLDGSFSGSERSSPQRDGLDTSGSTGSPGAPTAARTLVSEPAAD
Sphingosine 1-phosphate receptor 3, sequence (Q99500 whole entry): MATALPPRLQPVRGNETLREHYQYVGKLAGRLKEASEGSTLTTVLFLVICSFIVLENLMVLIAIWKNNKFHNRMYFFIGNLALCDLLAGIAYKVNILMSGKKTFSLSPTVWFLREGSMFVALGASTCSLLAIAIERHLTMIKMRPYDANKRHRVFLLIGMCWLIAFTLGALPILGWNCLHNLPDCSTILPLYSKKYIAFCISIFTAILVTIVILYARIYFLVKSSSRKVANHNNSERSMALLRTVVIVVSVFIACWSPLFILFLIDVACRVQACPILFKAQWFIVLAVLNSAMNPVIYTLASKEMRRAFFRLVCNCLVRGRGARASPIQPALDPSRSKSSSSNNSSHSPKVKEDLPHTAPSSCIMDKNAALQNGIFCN
Sphingosine 1-phosphate receptor 2, sequence (O95136 whole entry): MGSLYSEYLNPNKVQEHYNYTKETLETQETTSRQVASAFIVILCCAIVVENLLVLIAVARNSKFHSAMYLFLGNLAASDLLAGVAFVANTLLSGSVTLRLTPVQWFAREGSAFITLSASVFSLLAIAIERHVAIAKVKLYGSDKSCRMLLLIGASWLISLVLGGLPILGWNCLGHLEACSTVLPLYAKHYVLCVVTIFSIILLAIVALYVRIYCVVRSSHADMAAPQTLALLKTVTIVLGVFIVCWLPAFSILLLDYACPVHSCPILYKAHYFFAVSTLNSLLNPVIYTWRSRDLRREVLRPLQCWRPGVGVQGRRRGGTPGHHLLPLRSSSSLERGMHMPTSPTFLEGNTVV

Structure (SMILES): C[C@@H]1CN([C@@H](C)CO)C(=O)c2cccc(NC(=O)Nc3cccc4ccccc34)c2O[C@H]1CN(C)S(=O)(=O)c1ccc2c(c1)OCO2
AC50 [1]: > 195 µM (inactive)
AC50 (INS1 [2]): 29.8 µM (active)
AC50 (INS1 [3]): 49.4 µM (active)

IC50 (Caspase-3): > 99 µM (inactive)
IC50 [4]: > 99 µM (inactive)
IC50 [6]: > 99 µM (inactive)
Structure (SMILES): O=C(N/N=C/c1c[nH]c2ccccc12)C1CC1c1ccccc1 (stereo not drawn)
IC50 [5]: > 99 µM (inactive)

Structure (SMILES): CCc1nnc(NC(=O)Cc2c(F)cccc2Cl)s1
IC50 [7]: > 99 µM (inactive)
IC50 [8]: > 99 µM (inactive)

EC50 [9]: > 25 µM (inactive)
EC50 [10]: > 25 µM (inactive)
EC50 [11]: 0.237 µM (active)
EC50 [12]: 0.0683 µM (active)
Structure (SMILES): CC/N=C1/S/C(=C\c2cc(C)n(-c3ccccc3)c2C)C(=O)N1CC

— ChEMBL document CHEMBL1201862, “PubChem BioAssay data set” (2004)
